Consider 2 compounds from US11351209B2 (priority 2016, dated 2022).

The test system of one data set is orthotopic 4T1 tumours. Put plainly: Efficacy study, oral IC87114 and intravenous VVL15, orthotopic 4T1 tumours. In kind it is in vivo, BALB/c mice. The conditions noted are these: 4T1 orthotopic; IC87114 75 mg kg^−1 oral gavage three hours before intravenous VVL15 (Group D); vs all other groups.
Data set [1] relates to CT26 flank tumours. Format: in vivo, BALB/c mice. The conditions noted are these: 75 mg kg^−1 IC87114 three hours before intravenous 1×10^8 PFU VVL15, days 1, 3, 4 and 5, vs vehicle buffer.
A further data set concerns Vaccinia virus. As to conditions: in vivo.
For a further data set, the system named is p110 delta protein. In kind it is cell-based, BALB/c mice.
Data set [2] concerns bone marrow derived macrophages. In kind it is cell-based, BALB/c mice.
A further data set deals with splenocytes. The data set is described as follows: Ex vivo interferon gamma ELISA on splenocytes. In kind it is in vivo, BALB/c mice. The conditions noted are these: CT26-bearing mice, IC87114 75 mg kg^−1 oral three hours before intravenous VVL15. As for the experimental part: Interferon gamma assay on splenocytes derived from BALB/c mice bearing CT26 tumours. Fifteen mice were subcutaneously injected in their shaved right flank with 1×10^6 CT26 tumour cells. […] An interferon (IFN) gamma ELISA was performed. Anti-tumour immunity: splenocytes were stimulated with mitomycin treated CT26 cells, there was no statistically significant difference between any of the groups.
FIG. 2E illustrates an ex vivo interferon gamma assay performed on splenocytes derived from BALB/c mice bearing CT26 tumours. […] Thus pre-treatment with IC87114 appears to reduce in magnitude the subsequent development of an anti-viral response. This potentially could mean that aside from the effect IC87114 has on macrophages at an early time point it has a separate more lasting effect that leads to reduced anti-viral immunity and to the establishment of an effective infection of the tumours leading to the observed improvement in efficacy compared to virus alone.
(In general: In an ELISA, binding on a coated surface is turned into a signal by an enzyme label.)

Data set [3] is classed as in vivo. As to conditions: Rats, oral administration.
In data set [4] the test system is CT26 flank tumours. The data set is described as follows: Efficacy study, oral IC87114 and intravenous VVL15, CT26 flank tumours. In kind it is in vivo, BALB/c mice. As to conditions: IC87114 50 mg kg^−1 oral gavage three hours before intravenous VVL15 (Group D), vs all other groups.
The conditions of data set [5]: several trials; cited from earlier work.

SMILES strings stand for the structures. “Also recorded” adds a separate entry of the source. Like-named read-outs stand apart in the source and are kept apart here.

For the compound `Cc1ccccc1-n1c(Cn2cnc3c(N)ncnc32)nc2cccc(C)c2c1=O` [IC87114, 2-[(6-amino-9H-purin-9-yl)methyl]-5-methyl-3-(2-methylphenyl)-4(3H)-quinazolinone], the “survival (Kaplan-Meier)” value was “improves survival; also recorded: survived significantly longer than all other groups; also recorded: survival advantage” with orthotopic 4T1 tumours and “improves survival; also recorded: survived significantly longer than all the other groups; also recorded: survival advantage” in the data set on CT26 flank tumours [4]. For the same compound, the tumour luminescence signal result with CT26 flank tumours [1] is given as “significantly more signal”; in the data set with CT26 flank tumours [1] (listed as IC87714) it was “consistently higher tumour luminescence compared to control”. In the data set on Vaccinia virus, the “localisation of Vaccinia virus to the spleen” value is on record as “reduces the localisation of Vaccinia virus to the spleen”. Also, the “number of cells immunoreactive for Vaccinia coat protein per ×200 field in spleen” value in the data set with Vaccinia virus is “statistically significant difference between the groups”. The “p110 delta protein expression” value in the data set with p110 delta protein was “does not appear to alter the amount of p110 delta protein detected”. Further, the “viral attachment to wild-type macrophages compared with p110 delta knock in macrophages” value in data set [2] (wild-type macrophages pretreated 2 hours with IC87114, vs untreated wild-type (P<0.05 or P<0.01)) is given as “statistically significant from untreated wild-type macrophages”. Besides, the “amount of VVL15 attached to macrophages (qPCR)” value in data set [2] (wildtype macrophages pretreated 2 hours with IC87114 vs untreated (P<0.001)) is reported as “statistically significantly different from untreated macrophages; also recorded: significantly reduces VVL15 attachment to macrophages; also recorded: reduction in viral attachment to macrophages”. Moreover, the “Vaccinia virus detected on macrophages (confocal microscopy)” value in [2] (wildtype macrophages pretreated 2 hours with IC87114 vs vehicle buffer) was “less Vaccinia virus detected”. The “anti-tumour immunity: IFN gamma from splenocytes stimulated with mitomycin treated CT26 cells” value in the data set on splenocytes is on record as “no effect on anti-tumour immunity”. In the data set on splenocytes (vs virus alone), the “anti-viral immunity: IFN gamma from splenocytes stimulated with B8R protein” value is given as “attenuates anti-viral immunity; also recorded: reduced levels of IFN gamma”. For the same compound, the “time to maximum plasma concentration” value in [3] is 4 h.

As for `CC[C@H](Nc1ncnc2[nH]cnc12)c1nc2cccc(F)c2c(=O)n1-c1ccccc1` [Idelalisib, 5-Fluoro-3-phenyl-2-[(1S)-1-(7H-purin-6-ylamino)propyl]-4(3H)-quinazolinone], the toxicities in trials entry in data set [5] was “minimal toxicities”.
